Data from patent US20040265288A1, “New applications of gene therapy technology” (priority 1995, published 2004).
Where two headings read alike, the source gives them in different places.

Assays:
[1] = tested on: FKBP12-containing fusion proteins (3xFKBP-p65 / ZFHD1-3xFKBP transcription factors); assay: Dimerizer-regulated gene expression (SEAP or hGH reporter) in transfected cells; format: cell-based, human; details: for activation of transcription with stably integrated constructs: cells in which transcription factor and reporter gene constructs are all stably integrated
Description: To screen clones it is convenient to transiently transfect cells in a 96-well format. Lipofectamine is used to introduce 50 ng total DNA/96-well under conditions recommended by the manufacturer (Gibco/BRL). If introducing both the transcription factor and target gene plasmids transiently, use 20 ng of each plasmid and 10 ng of carrier DNA (it may be necessary to optimize plasmid ratios and transfection conditions for each cell type). If only introducing one plasmid, bring to 50 ng with carrier DNA.
Following transfection, add medium +/−100 nM AP1510 dimerizer (or try a range of concentrations).
After overnight incubation (or longer), assay for target gene expression.
Secreted alkaline phosphatase activity can be easily measured from the supernatant of appropriately transfected cells using fluorescence-(see (10)), or chemiluminescence-(Tropix, Bedford, Mass.) based assays. Samples to be tested should first be incubated at 65° C. for 1 hour to inactivate endogenous alkaline phosphatase activity.
In gene regulation applications, expression becomes detectable at an AP1510 concentration of approximately 10 nM, and peaks at approximately 100 nM. When SEAP or hGH reporter systems are used, expression can be easily detected after an overnight incubation with dimerizer. In our experience, the efficacy is generally similar for other dimerization applications. A range of concentrations from 1 nM to 1 uM will typically provide a good dose-response profile in both cases.

[2] = tested on: transmembrane receptors that are activated by oligomerization; assay: Dimerization of transmembrane receptors; format: cell-based
[3] = Immunosuppressive activity of dimerizer
[4] = Solubility in aqueous culture medium; format: physicochemical; details: serial dilution in (aqueous) culture medium
Description: Working concentrations of AP1510 can be obtained by adding compound directly from ethanol stocks, or by diluting serially in culture medium just before use. In the latter case it is recommended that the highest concentration not exceed 5 uM, to ensure complete solubility in the (aqueous) medium. In either case, the final concentration of ethanol in the medium added to mammalian cells should be kept below 0.5% (a 200-fold dilution of a 100% ethanol solution) to prevent detrimental effects of the solvent on the cells.

cells = assay: Toxicity to cells; format: cell-based
FKBP12 = FKBP12 (Homo sapiens, UniProt P62942); details: linker positioned in the calcineurin binding domain of FK506; cited from earlier work
[5] = linker positioned in the calcineurin binding domain of FK506; cited from earlier work
[6] = gene regulation applications, SEAP or hGH reporter, overnight incubation with dimerizer

Chain of FKBP12 (P62942 whole entry, the tested form may be a part): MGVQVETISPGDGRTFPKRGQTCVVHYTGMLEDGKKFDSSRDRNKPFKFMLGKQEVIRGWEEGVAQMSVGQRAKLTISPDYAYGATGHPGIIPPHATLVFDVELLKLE

Row | dimerization of transmembrane receptors [2] | immunosuppressive activity [3] | highest concentration ensuring complete solubility in medium [4] | Molecule | activation of transcription with stably integrated constructs [1] | activation of transcription compared with FK1012 ([1]; gene regulation applications) | AP1510 concentration at which expression becomes detectable [1, 6] | AP1510 concentration at which expression peaks [1, 6] | toxicity to cells (cells) | FKBP12 binding (FKBP12) | immunosuppressive activity [5]
1 | successfully used to dimerize | no immunosuppressive activity | ≤ 5 µM | CCC(C)(C)C(=O)C(=O)N1CCCC[C@H]1C(=O)O[C@H](CCc1ccc(OC)c(OC)c1)c1cccc(OCC(=O)NCCNC(=O)COc2cccc([C@@H](CCc3ccc(OC)c(OC)c3)OC(=O)[C@@H]3CCCCN3C(=O)C(=O)C(C)(C)CC)c2)c1 [AP1510] | activates transcription efficiently | at lower concentrations and to a higher level than FK1012 | approximately 10 nM | approximately 100 nM | non-toxic to cells |  | 
2 |  |  |  | FK1012 | poor |  |  |  |  | unaffected | abolishes immunosuppressive activity
